In this test the target is Major prion protein. In words: Half maximal inhibition of Prion protein PrPsc formation was assayed in ScN2a cells. The test is classed as cell-based.

What is called EC50 is the concentration needed to bring the measured effect to its halfway point.

Molecule `c1ccc2nc3ccccc3nc2c1` [PHENAZINE] returned an EC50 above 10 µM. As for `CC(=O)c1ccc2c(c1)N(CCCN(C)C)c1ccccc1S2` [ACEPROMAZINE], the figure is 5 µM; as for `O=C(CCCN1CCC(O)(c2ccc(Cl)cc2)CC1)c1ccc(F)cc1` [HALOPERIDOL], above 10 µM.

Consider `CN(C)CCCN1c2ccccc2Sc2ccccc21` [PROMAZINE], for which the EC50 was 5 µM. The figure for `CN(C)CCCN1c2ccccc2Sc2ccc(Cl)cc21` [CHLORPROMAZINE] is 2 µM; for `CC(CN1c2ccccc2Sc2ccccc21)N(C)C` (stereo not drawn) [PROMETHAZINE] it is 8 µM; for `NC(=O)N1c2ccccc2C=Cc2ccccc21` [CARBAMAZEPINE] it is above 10 µM. The molecule `CCN(CC)CCCC(C)Nc1ccnc2cc(Cl)ccc12` (stereo not drawn) [CHLOROQUINE] registered a concentration giving a half-maximal response (EC50) of 4 µM.

For the origin of these results see ChEMBL document CHEMBL1145045 (J Med Chem, 2003).
